According to US20240043928A1, “BIOMARKERS FOR MYELODYSPLASTIC SYNDROME (MDS) AND METHODS OF USING THE SAME” (Eisai R&D Management Co., Ltd., priority 2020, published 2024):
Where two headings read alike, the source gives them in different places.

Legend:
[1] = Phase I study NCT02841540: plasma pharmacokinetics; format: in vivo, human; conditions: for Cmax / half-life / AUC(0-t) / Tmax: human, plasma; for Cmax / half-life / AUC(0-t): geometric mean (CV %); for AUC(0-t): read-out: AUC0-24; for Tmax: median
Description: (§1) Plasma samples for PK analyses were collected during Cycle 1 on Day 1 and Day 4 (pre-dose and 0.5, 1, 2, 4, 6, 8, 10, and 24 hours post-dose), and pre-dose and 4 hours post-dose on Cycle 1 on Day 15. PK analyses were conducted using Phoenix® VVinNonlin. For pharmacodynamic and biomarker analyses, peripheral blood samples were collected into PAXgene® Blood RNA Tubes (BD Biosciences, San Jose, California) at Cycle 1 Day 1 (pre-dose and 1, 2, 4, 10 and 24 hours post-dose) for all patients. RNA was extracted using Maxwell® simplyRNA Blood Kit (Promega, Madison, Wisconsin). Target engagement (i.e., splicing modulation) was measured by assessing relative expression of representative pre- and mature-mRNA or aberrant and canonical transcripts at post-dose time points comparing to pre-dose, using a customized Nanostring nCounter gene expression panel (NanoString Technologies, Seattle, Washington). For splicing mutation analysis, peripheral blood was collected into PAXgene® Blood DNA Tubes (BD Biosciences, San Jose, California). Baseline splicing mutations were identified using the Focus:Myeloid™ Next Generation Sequencing (NGS) panel determined centrally by Cancer Genetics Inc. (Rutherford, NJ). Biomarker analyses of pretreatment samples were conducted using one-way ANOVA and MedCalc® software. Receiver-Operating-Characteristics (ROC) curves were performed according to the methodology described by Hanley and McNeil (Radiology. 1982;143(1):29-36; see also Zweig and Campbell, Clin Chem. 1993;39(4):561-577).

[2] = test system: patients with myelodysplastic syndrome (MDS), chronic myelomonocytic leukemia (CMML), or acute myeloid leukemia (AML); assay: Phase I study NCT02841540: clinical response and transfusion independence; format: in vivo, human
Description: Clinical responses were assessed using the 2006 International Working Group (IWG) response criteria for MDS (Cheson et al. Blood. 2006;108:419-425), the IWG 2003 criteria for AML, and the 2015 international consortium proposal of uniform response criteria for myelodysplastic/myeloproliferative neoplasms (MDS/MPN) and CMML (Savona et al. Blood. 2015;125(12):1857-1865). Peripheral blood sampling, bone marrow aspirates, bone marrow biopsies, marrow cytogenetics, and cellular composition by flow cytometry were performed at the time of screening, and after Cycles 1, 2, and 4. Beyond Cycle 4, bone marrow aspirates were performed as clinically indicated based on changes in peripheral blood count, or as needed to establish either complete response or disease progression. An independent central confirmation and interpretation was performed for disease assessments.

[3] = test system: TMEM14C AJ/CJ ratio and other splicing markers; assay: Phase I study NCT02841540: pharmacodynamics, splicing markers in peripheral blood (Nanostring nCounter panel); format: in vivo, human
Description: as §1

[4] = Non-human primate toxicity; format: in vivo
[5] = test system: human acute myeloid leukemia (AML) cell lines, including mutant U2AF1, SRSF2, and SF3B1 cells; conditions: panel of human AML cell lines incl. mutant U2AF1, SRSF2, SF3B1 cells; cited from earlier work
[6] = test system: xenograft models of leukemia expressing mutant SF3B1; conditions: oral administration; cited from earlier work
[7] = patient: CMML, IPSS Lower, starting dose 7 mg
[8] = patient: MDS (baseline Hb 9.1 g/dL), IPSS Lower, starting dose 5 mg
[9] = patient: MDS, IPSS Higher, starting dose 2 mg
[10] = patient: MDS, IPSS Higher, starting dose 7 mg
[11] = patient: MDS, IPSS Lower, donor one, starting dose 7 mg
[12] = patient: MDS, IPSS Lower, starting dose 2 mg (7 mg during last two RBC TI periods)
[13] = patient: MDS, IPSS Lower, starting dose 3.5 mg
[14] = patient: MDS/MPN (RARS-T), IPSS Lower, starting dose 2 mg
[15] = patients who experienced RBC TI

Structure (SMILES): C/C(=C\C=C\[C@@H](C)c1ccccn1)[C@H]1OC(=O)C[C@H](O)CC[C@@](C)(O)[C@@H](OC(=O)N2CCN(C)CC2)/C=C/[C@@H]1C [Compound 1, (2S,3S,4E,6S,7R,10R)-7,10-dihydroxy-3,7-dimethyl-12-oxo-2-[(2E,4E,6R)-6-(pyridine-2-yl)hepta-2,4-dien-2-yl]oxacyclododec-4-en-6-yl-4-methylpiperazine-1-carboxylate]
- Cmax ([1]; oral, 1.0 mg once daily): 0.835 ng/mL
- half-life ([1]; oral, 1.0 mg once daily): 5.1 h
- AUC(0-t) ([1]; oral, 1.0 mg once daily): 4.89 ng·h/mL
- Tmax ([1]; oral, 1.0 mg once daily): 2 h
- Cmax ([1]; oral, 2.0 mg once daily): 1.09 ng/mL
- half-life ([1]; oral, 2.0 mg once daily): 5.4 h
- AUC(0-t) ([1]; oral, 2.0 mg once daily): 8.39 ng·h/mL
- Tmax ([1]; oral, 2.0 mg once daily): 2 h
- Cmax ([1]; oral, 3.5 mg once daily): 2.78 ng/mL
- half-life ([1]; oral, 3.5 mg once daily): 5.4 h
- AUC(0-t) ([1]; oral, 3.5 mg once daily): 15.6 ng·h/mL
- Tmax ([1]; oral, 3.5 mg once daily): 1.5 h
- Cmax ([1]; oral, 5.0 mg once daily): 3.94 ng/mL
- half-life ([1]; oral, 5.0 mg once daily): 5.8 h
- AUC(0-t) ([1]; oral, 5.0 mg once daily): 24.5 ng·h/mL
- Tmax ([1]; oral, 5.0 mg once daily): 1 h
- Cmax ([1]; oral, 7.0 mg once daily): 9.61 ng/mL
- half-life ([1]; oral, 7.0 mg once daily): 5.3 h
- AUC(0-t) ([1]; oral, 7.0 mg once daily): 39.4 ng·h/mL
- Tmax ([1]; oral, 7.0 mg once daily): 1 h
- Cmax ([1]; oral, 10 mg once daily): 12.7 ng/mL
- half-life ([1]; oral, 10 mg once daily): 5.5 h
- AUC(0-t) ([1]; oral, 10 mg once daily): 51 ng·h/mL
- Tmax ([1]; oral, 10 mg once daily): 1 h
- Cmax ([1]; oral, 12 mg once daily): 12.2 ng/mL
- half-life ([1]; oral, 12 mg once daily): 5.4 h
- AUC(0-t) ([1]; oral, 12 mg once daily): 64.7 ng·h/mL
- Tmax ([1]; oral, 12 mg once daily): 2 h
- Cmax ([1]; oral, 14 mg once daily): 25.6 ng/mL
- half-life ([1]; oral, 14 mg once daily): 5.1 h
- AUC(0-t) ([1]; oral, 14 mg once daily): 108 ng·h/mL
- Tmax ([1]; oral, 14 mg once daily): 1 h
- Cmax ([1]; oral, 40 mg once daily): 73.3 ng/mL
- half-life ([1]; oral, 40 mg once daily): 4.5 h
- AUC(0-t) ([1]; oral, 40 mg once daily): 265 ng·h/mL
- Tmax ([1]; oral, 40 mg once daily): 0.5 h
- Cmax ([1]; 20 mg once daily): 33.6 ng/mL
- half-life ([1]; 20 mg once daily): 5.1 h
- AUC(0-t) ([1]; 20 mg once daily): 142 ng·h/mL
- Tmax ([1]; 20 mg once daily): 0.75 h
- Cmax ([1]; 30 mg once daily): 34.4 ng/mL
- half-life ([1]; 30 mg once daily): 5.3 h
- AUC(0-t) ([1]; 30 mg once daily): 159 ng·h/mL
- Tmax ([1]; 30 mg once daily): 1.25 h
- absorption ([1]; preliminary PK analysis): rapidly absorbed
- dose dependence of plasma exposure ([1]; preliminary PK analysis): dose-proportional increase in plasma exposure
- inter-individual variability on clearance/bioavailability ([1]; preliminary population PK modeling): about 34%
- RBC TI periods ([2]; 4 patients with SF3B1 mutations and a diagnosis of AML): No RBC TI periods were observed
- patients who experienced events of RBC TI ([2]; 5 of the 7 MDS patients with pre-treatment TMEM14C AJ/CJ >4.01): 71%
- patients who experienced RBC TI events ([2]; 5 of the 20 patients with missense SF3B1 mutations at study entry): 25%
- patients with intervals of >56 days without RBC transfusions ([2]; 9 of 62 patients transfusion dependent at study entry, as of April 2020, all Schedule I): 15%
- RBC TI rate ([2]; CMML (1 subject)): 25%
- RBC TI rate ([2]; MDS (8 cases)): 19%
- complete or partial responses meeting 2006 IWG criteria ([2]; all patients): No complete or partial responses
- Median duration of RBC TI ([2]; human, in vivo): 13 weeks
- Median time to onset of RBC TI ([2]; human, in vivo): 15 weeks
- additional RBC TI cases, transfusion dependence prior to study entry not verified ([2]; human, in vivo): Two additional patients (1 AML, 1 MDS) experienced RBC TI periods of >56 days
- clinical benefit (platelet response) (MDS/MPN criteria) ([2]; in the 4 subjects with CMML): 1
- complete cytogenetic remission (MDS/MPN criteria) ([2]; in the 4 subjects with CMML): 1
- patients who experienced RBC TI at the 7 mg dose ([2]; of the patients with RBC TI): Four of the 9
- patients whose first RBC TI initiated in weeks 1-24 of the study ([2]; of the patients with RBC TI): 8 of the 9
- platelet transfusion independence without RBC TI ([2]; one higher risk MDS patient, 7 mg, Schedule II): 22 week
- Longest RBC TI Period [2, 7]: 66 days
- Number of RBC TI Periods [2, 7]: 1
- Time to First RBC TI [2, 7]: 4 days
- Longest RBC TI Period [2, 8]: 87 days
- Number of RBC TI Periods [2, 8]: 1
- Time to First RBC TI [2, 8]: 398 days
- Longest RBC TI Period [2, 9]: 121 days
- Number of RBC TI Periods [2, 9]: 1
- Time to First RBC TI [2, 9]: 126 days
- Longest RBC TI Period [2, 10]: 107 days
- Number of RBC TI Periods [2, 10]: 1
- Time to First RBC TI [2, 10]: 104 days
- Longest RBC TI Period [2, 11]: 98 days
- Number of RBC TI Periods [2, 11]: 4
- Time to First RBC TI [2, 11]: 73 days
- Longest RBC TI Period [2, 12]: 85 days
- Number of RBC TI Periods [2, 12]: 5
- Time to First RBC TI [2, 12]: 88 days
- Longest RBC TI Period [2, 13]: 98 days
- Number of RBC TI Periods [2, 13]: 2
- Time to First RBC TI [2, 13]: 101 days
- Longest RBC TI Period [2, 14]: 56 days
- Number of RBC TI Periods [2, 14]: 1
- Time to First RBC TI [2, 14]: 111 days
- period of platelet transfusion independence ([2]; the CMML patient with RBC TI): 21 week
- modulation of splicing markers post-dosing ([3]; PBMC samples, NanoString probes, 61 splicing markers): general modulation of splicing markers post-dosing was observed
- modulation of relative expression of splicing markers ([3]; heat map, FIG. 5): dose-dependent modulation
- change of the TMEM14C AJ/CJ ratio with dosing [3, 15]: Downregulation
- time of nadir of the TMEM14C AJ/CJ ratio [3, 15]: 2 to 10 h
- dose-limiting toxicity (DLT) [4]: gastrointestinal distress and colitis
- growth inhibitory activity [5]: shows growth inhibitory activity
- in vivo antitumor activity [6]: induces in vivo antitumor activity
